Results on one molecule are retold here after patent US8367319B2, “Methods and compositions for the identification of antibiotics that are not susceptible to antibiotic resistance” (Wayne State University, priority 2002, dated 2013).

For assay [1], the system named is E. coli DH5. The experiment in a line: Minimum inhibitory concentration (MIC) of chloramphenicol for cells expressing plasmid-derived ribosomes (CAT reporter). It is filed as cell-based. The conditions noted are these: for MIC: Escherichia coli.
Assay [2] has as its system E. coli DH5. The assay is described as above. It is filed as cell-based. The conditions noted are these: for MIC: Escherichia coli. On the procedure:
Bacterial strains and media. All plasmids were maintained and expressed in E. coli DH5 (supE44, hsdR17, recA1, endA1, gyrA96, thi-1 and relA1) (36). To induce synthesis of plasmid-derived rRNA from the lacUV5 promoter, IPTG was added to a final concentration of 1 mM. Chloramphenicol acetyltransferase activity was determined essentially as described by Nielsen et al. (1989) Anal. Biochem. 179: 19-23. Cultures for CAT assays were grown in LB-Ap100. MIC were determined by standard methods in microtiter plates as described in Lee, K., et al. (1997) J. Mol. Biol. 269: 732-743.
Minimum inhibitory concentration determination. MICs were determined by standard methods in microtiter plates or on solid medium. Overnight cultures grown in LB-Ap100 were diluted and induced in the same medium containing 1 mM IPTG for three hours. Approximately 10^4 induced cells were then added to wells (or spotted onto solid medium) containing LB-Ap100+ IPTG (1 mM) and chloramphenicol at increasing concentrations.
This is another data set of the same source.

By MIC is commonly meant the least concentration at which growth counts as inhibited.

The structures appear in SMILES notation. Values after ≈ are worked out from the molar mass of the structure shown. Read-outs that look alike come from different tables or passages of the source.

Turning to `O=C(N[C@H](CO)[C@H](O)c1ccc([N+](=O)[O-])cc1)C(Cl)Cl` [chloramphenicol], the MIC in assay [1] (DH5, pRNA122 (specialized ribosomes), uninduced, read-out: background chloramphenicol MIC) is 40 to 50 µg/mL (≈ 124 to 155 µM); in assay [1] (DH5, uninduced cells containing pRNA100 (FIG. 13), read-out: MIC of chloramphenicol), 100 µg/mL; in assay [2] (DH5, 451 of 536 selected MBS-RBS isolates (84.1%), in the presence of inducer, read-out: MIC of chloramphenicol) it was 400 to 600 µg/mL; in assay [2] (DH5, 24 h, cells expressing wild-type rRNA from pRNA122 (unmutated control), induced with 1 mM IPTG, 24 hours, read-out: MIC of chloramphenicol), 600 µg/mL; in assay [2] (DH5, 24 h, nine slow growing MBS-RBS isolates (1.7%), in the presence of inducer, scored after 24 hours, read-out: MIC of chloramphenicol), less than 350 µg/mL; in assay [2] (DH5, pRNA122 (specialized ribosomes), induced cells, read-out: MIC of chloramphenicol) it was 550 to 600 µg/mL. Besides, the MIC was 320 µg/mL in assay [2] (DH5, read-out: MIC of chloramphenicol, mean over mutants, cells expressing 78 functional 790-loop mutants in pRNA122, standard deviation 89); 350 µg/mL in assay [2] (DH5, read-out: MIC of chloramphenicol, median and mode over mutants, cells expressing 78 functional 790-loop mutants in pRNA122); 600 µg/mL in assay [2] (DH5, read-out: MIC of chloramphenicol, remaining 76 selected MBS-RBS clones (14.2%), in the presence of inducer). The molecule further had a Chloramphenicol resistance in assay [1] (uninduced cells containing pRNA100) of 75 µg/mL. Further, the “chloramphenicol concentration to which cells are sensitive” value in assay [2] (pRNA122 + wt MBS: CAT message translated by wild-type ribosomes) is less than 10 µg/mL. Besides, the “MIC of chloramphenicol, range over mutants” value in assay [2] ({}) fell in the range of 150 to 550 µg/mL.
